According to PubChem BioAssay AID1963964 (Molecular Pharmacology Branch, DTP, NCI, 2024):

System: 997726-040-R-J2-PDC tumor spheroids, viability
Assay: Anticancer human tumor 997726-040-R-J2-PDC patient-derived squamous cell lung carcinoma cell line growth inhibition [PI3K]
Conditions: spheroids with HUVEC and MSC; for IC50: curve of first compound; for viability, T/C: stronger effect = lower value
How it was run: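 Tumor cells were combined with HUVEC and MSCs into spheroids, then dosed with PI3K-inhibitor combinations over half-log ranges capped near clinical Cmax or 10 microM.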

[1] = second compound 0.0316 µM, first compound 0.0316 µM
[2] = second compound 0.0316 µM, first compound 0.1 µM
[3] = second compound 0.0316 µM, first compound 0.316 µM
[4] = second compound 0.0316 µM, first compound 1 µM
[5] = second compound 0.0316 µM, first compound 3.16 µM
[6] = second compound 0.0316 µM, first compound 10 µM
[7] = second compound 0.1 µM, first compound 0.0316 µM
[8] = second compound 0.1 µM, first compound 0.1 µM
[9] = second compound 0.1 µM, first compound 0.316 µM
[10] = second compound 0.1 µM, first compound 1 µM
[11] = second compound 0.1 µM, first compound 3.16 µM
[12] = second compound 0.1 µM, first compound 10 µM
[13] = second compound 0.316 µM, first compound 0.0316 µM
[14] = second compound 0.316 µM, first compound 0.1 µM
[15] = second compound 0.316 µM, first compound 0.316 µM
[16] = second compound 0.316 µM, first compound 1 µM
[17] = second compound 0.316 µM, first compound 3.16 µM
[18] = second compound 0.316 µM, first compound 10 µM
[19] = second compound 1 µM, first compound 0.0316 µM
[20] = second compound 1 µM, first compound 0.1 µM
[21] = second compound 1 µM, first compound 0.316 µM
[22] = second compound 1 µM, first compound 1 µM
[23] = second compound 1 µM, first compound 3.16 µM
[24] = second compound 1 µM, first compound 10 µM
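Further: spheroids exposed to compounds for seven days before readout.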

Work on CC(Cn1ccc(-c2ccc(C#N)c(Cl)c2)n1)NC(=O)c1cc(C(C)O)[nH]n1 (centres undefined) + COc1c(OCCCN2CCOCC2)ccc2c3n(c(=NC(=O)c4cnc(N)nc4)nc12)CCN3 yielded an IC50 (second compound 0.00316 µM) of over 10 µM, an IC50 (second compound 0.01 µM) of over 10 µM and an IC50 (second compound 0.0316 µM) of under 0.0316 µM. The IC50 (second compound 0.1 µM) was under 0.0316 µM, the IC50 (second compound 0.316 µM) was under 0.0316 µM and the IC50 (second compound 1 µM) was under 0.0316 µM. For the same compound, the viability, T/C (second compound 0.00316 µM, first compound 0.0316 µM) was 69.7%, the viability, T/C (second compound 0.00316 µM, first compound 0.1 µM) was 67% and the viability, T/C (second compound 0.00316 µM, first compound 0.316 µM) was 78.8%. The viability, T/C (second compound 0.00316 µM, first compound 1 µM) was 78.8%, the viability, T/C (second compound 0.00316 µM, first compound 3.16 µM) was 82.3% and the viability, T/C (second compound 0.00316 µM, first compound 10 µM) was 74%. For the same compound, the viability, T/C (second compound 0.01 µM, first compound 0.0316 µM) was 57.3%, the viability, T/C (second compound 0.01 µM, first compound 0.1 µM) was 60.4% and the viability, T/C (second compound 0.01 µM, first compound 0.316 µM) was 59.9%. It also gave a viability, T/C (second compound 0.01 µM, first compound 1 µM) of 56.1%, a viability, T/C (second compound 0.01 µM, first compound 3.16 µM) of 54.6% and a viability, T/C (second compound 0.01 µM, first compound 10 µM) of 54.8%. The viability, T/C [1] was 35.7%, the viability, T/C [2] was 36.3% and the viability, T/C [3] was 41%. It also gave a viability, T/C [4] of 33.6%, a viability, T/C [5] of 37.6% and a viability, T/C [6] of 37.2%. For the same compound, the viability, T/C [7] was 23%, the viability, T/C [8] was 21.4% and the viability, T/C [9] was 21.5%. The viability, T/C [10] was 24.5%, the viability, T/C [11] was 22.6% and the viability, T/C [12] was 22.9%. It also gave a viability, T/C [13] of 4.78%, a viability, T/C [14] of 4.57% and a viability, T/C [15] of 5.76%. It also gave a viability, T/C [16] of 6.82%, a viability, T/C [17] of 4.57% and a viability, T/C [18] of 5.74%. It also gave a viability, T/C [19] of 1.37%, a viability, T/C [20] of 1.18% and a viability, T/C [21] of 1.28%. It also gave a viability, T/C [22] of 1.44%, a viability, T/C [23] of 1.61% and a viability, T/C [24] of 1.51%.

In the case of CCCS(=O)(=O)Nc1ccc(F)c(C(=O)c2c[nH]c3ncc(-c4ccc(Cl)cc4)cc23)c1F + CC(Nc1ncnc2nc[nH]c12)c1cc2cccc(Cl)c2c(=O)n1-c1ccccc1, the IC50 (second compound 0.0316 µM) is reported as 7.29 µM, the IC50 (second compound 0.1 µM) is reported as 7.37 µM and the IC50 (second compound 0.316 µM) is reported as 7.39 µM. It also gave an IC50 (second compound 1 µM) of 7.17 µM, an IC50 (second compound 3.16 µM) of 5.94 µM and an IC50 (second compound 10 µM) of 4.43 µM. The viability, T/C [1] was 104%, the viability, T/C [2] was 103% and the viability, T/C [3] was 128%. The viability, T/C [4] was 137%, the viability, T/C [5] was 162% and the viability, T/C [6] was 20.9%. For the same compound, the viability, T/C [7] was 107%, the viability, T/C [8] was 116% and the viability, T/C [9] was 110%. For the same compound, the viability, T/C [10] was 121%, the viability, T/C [11] was 166% and the viability, T/C [12] was 23.1%. For the same compound, the viability, T/C [13] was 103%, the viability, T/C [14] was 102% and the viability, T/C [15] was 114%. The viability, T/C [16] was 138%, the viability, T/C [17] was 169% and the viability, T/C [18] was 23.1%. It also gave a viability, T/C [19] of 102%, a viability, T/C [20] of 95.5% and a viability, T/C [21] of 109%. It also gave a viability, T/C [22] of 126%, a viability, T/C [23] of 146% and a viability, T/C [24] of 23%. For the same compound, the viability, T/C (second compound 3.16 µM, first compound 0.0316 µM) was 71.1%, the viability, T/C (second compound 3.16 µM, first compound 0.1 µM) was 80% and the viability, T/C (second compound 3.16 µM, first compound 0.316 µM) was 83.9%. For the same compound, the viability, T/C (second compound 3.16 µM, first compound 1 µM) was 85.4%, the viability, T/C (second compound 3.16 µM, first compound 3.16 µM) was 107% and the viability, T/C (second compound 3.16 µM, first compound 10 µM) was 20.5%. The viability, T/C (second compound 10 µM, first compound 0.0316 µM) was 53.7%, the viability, T/C (second compound 10 µM, first compound 0.1 µM) was 57.2% and the viability, T/C (second compound 10 µM, first compound 0.316 µM) was 60.1%. It also gave a viability, T/C (second compound 10 µM, first compound 1 µM) of 60.4%, a viability, T/C (second compound 10 µM, first compound 3.16 µM) of 82.6% and a viability, T/C (second compound 10 µM, first compound 10 µM) of 19.3%.
